Measurements as given in paper PMC8242467 (Cell Reports, 2021).
Counter-ions that a name gives are not always drawn.

Biological target: T1, mitochondrial calcium uniporter (MCU) (Homo sapiens, UniProt Q8NE86)
T1 sequence (Q8NE86 51-351): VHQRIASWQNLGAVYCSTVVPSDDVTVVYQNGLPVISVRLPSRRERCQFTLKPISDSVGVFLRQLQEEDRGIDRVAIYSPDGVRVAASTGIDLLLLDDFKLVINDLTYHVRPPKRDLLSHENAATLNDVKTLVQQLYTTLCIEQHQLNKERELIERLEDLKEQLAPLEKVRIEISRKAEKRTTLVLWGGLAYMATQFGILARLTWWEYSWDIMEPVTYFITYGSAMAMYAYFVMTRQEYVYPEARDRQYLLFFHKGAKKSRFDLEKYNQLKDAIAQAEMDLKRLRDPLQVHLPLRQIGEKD
Assay: mitochondrial Ca2+ uptake in permeabilized HeLa cells
Format: cell-based

- EC50: 86.9 µM
SMILES: CCC(C)(C)c1ccc(CC(C)CN2C[C@@H](C)O[C@@H](C)C2)cc1 (stereo partly drawn) [amorolfine, (2R,6S)-2,6-dimethyl-4-[2-methyl-3-[4-(2-methylbutan-2-yl)phenyl]propyl]morpholine;hydrochloride]
